The nature of data set [1]: urine from 3 healthy donors, without granzyme B. The conditions noted are these: human, 37° C., up to 3 hours.
In data set [2] the test system is recombinant hGzmB (20 nM). Kind of data set: buffer-1 (50 mM Tris, 100 mM NaCl, pH 7.4). The conditions noted are these: human, 37° C., up to 2 h.
Data set [3] concerns human recombinant granzyme B (15 nM). Kind of data set: urine from 3 healthy donors with spiked granzyme B (15 nM). The conditions noted are these: 37° C., up to 3 hours.
The test system of data set [4] is co-cultures of E0771 cells and IL-2-activated CD8+ T cells. Nature of the data set: Drug screening, image-based phenotypic screen with H5. In kind it is cell-based, mouse. The following applies: drug at working concentration plus IL-2 100 U mL^−1, 3 h. As for the experimental part:
Drug screening. E0771 (750 cells/well) and freshly isolated murine CD8+ T cells (6,000 cells/well) were plated in 384-well plates as described above. […] H5 (20 μM) and Hoechst 33342 (1 μM) was added for 1 h at 37° C., washed with PBS and imaged under ImageXpress™ XLS (Molecular Devices) using KRB (10% FBS) buffer as media. Fluorescent images (4 sites/well) were acquired under a 40× objective using 405 nm (Hoechst) and 488 nm (H5) excitation wavelengths and data was analysed with MetaXpress software using the Custom Module Editor. Briefly, nuclei were used as seeds to create a pseudo-cell area and granzyme B positive puncta were detected using a top-hat filter (pixel size: 10, circle shape) followed by an average filter (3×3 pixel).

Data set [5] relates to E0771 cells alone or in co-culture with CD8+ T cells. Nature of the data set: AZD5363 follow-up: cell death and H5 staining by flow cytometry. Type of data set: cell-based, mouse. As for the experimental part: FIG. 10. […] Co-cultures were stained with probe H5 (5 μM) and AF647-Annexin V (10 nM). Excitation/emission wavelengths: 488 nm/525 nm (for probe H5), 633/670 nm (for AF647-Annexin V). c) Percentages of E0771 cells that were double-stained with probe H5 and AF647-Annexin V under the experimental conditions described in a). Data presented as mean values±SEM (n=3).
On the technique in general: In flow cytometry, cells or beads pass a laser one at a time.

Data set [6] addresses T1, hGzmB (Homo sapiens, UniProt P10144). Kind of data set: Fluorescence assays with recombinant hGzmB. Type of data set: biochemical. As for the experimental part:
Fluorescence assays with recombinant enzymes. Fluorescence-based assays with enzymes were performed in buffer-1 (50 mM Tris, 100 mM NaCl, pH 7.4) for GzmB, pro-GzmB, GzmA and HNE, or buffer-2 (25 mM HEPES, 0.1% CHAPS, 10 mM DTT, pH 7.5) for caspases and other enzymes. Probes (25 μM) were added to enzymes (20 nM or at the indicated concentrations) in 384-well plates and their fluorescence emission was recorded at 450 nm (for AMC) or 510 nm (for BODIPY) at 37° C. using a Synergy H1 Hybrid reader (BioTek). In experiments with Ac-IEPD-CHO (50 μM), the inhibitor was pre-incubated for 1 h with GzmB before addition of any probe.

In data set [7] the target is T1, hGzmB. Nature of the data set: HPLC conversion/cleavage of probes by hGzmB. Type of data set: biochemical. The following applies: for cleavage at 100 nM for 24 h: 100 nM enzyme. An excerpt:
FIG. 5. HPLC traces of the probe H5 before and after reaction with hGzmB. HPLC chromatogram and mass spectrometry analysis of the probe H5 before and after reaction with increasing concentrations of hGzmB. Mcalc. (intact probe): 1246.6 [M+Na^+]; Mcalc. (cleaved probe): 747.2 [M+H^+].

The next data set deals with GzmB. The conditions noted are these: cited from earlier work.
A further data set relates to hGzmB (100 nM). The following applies: human, up to 24 h.
Data set [8] has as its target T2, human recombinant granzyme B (Homo sapiens, UniProt P10144). Kind of data set: Reactivity of NIR probes with granzyme B. In kind it is biochemical. As for the experimental part: With the probes in hand (Table 4) they were tested for their reactivity with human recombinant granzyme B to identify a lead candidate. Each probe was tested at a concentration of 25 μM against 20 nM granzyme B and fluorescence was recorded over 2 hours at 37° C. (λex: 620 nm, λem: 660 nm).

Data set [9] deals with T2, human recombinant granzyme B. Kind of data set: HPLC/MS analysis of probe cleavage by granzyme B in urine. In kind it is biochemical. The following applies: after 1 h with granzyme B present. As for the experimental part: (§1) Following incubation, the samples were diluted with MeOH, centrifuged and the supernatant injected into the HPLC/MS. Samples were eluted with 0.1% HCOOH in H2O (A) and 0.1% HCOOH in MBCN (B), with a gradient of 0 to 100% B over 5 minutes and an additional isocratic period of 3 minutes with a flow rate of 1.5 mL min^−1. Reactions were monitored from 220-700 nm and percentage cleaved was determined by comparing peak area of the cleaved probe against the intact probe on MassLynx software.

Data set [10] is classed as in vitro ADME, human. On the procedure: as §1, with “Probe (H5 or R7) (25 μM) was incubated with human recombinant granzyme B (15 nM) in Granzyme B buffer for 1.5 h at 37° C. Following” for “Following”
We first sought to address the stability of probe H5 and R7 and in urine from 3 healthy donors to ensure no cross-reactivity occurred with any other biomolecules that may be present in all urine samples. To do this we monitored the fluorescence response of probe H5 and R7 in urine with and without spiked granzyme B (15 nM) and also assessed stability via HPLC analysis. […] (FIG. 11). It should also be noted that HPLC-MS confirmed the cleavage of probe H5 and R7 after the aspartic acid residue (the natural granzyme B cleavage site).

*1 amine or outer side, *2 acyl side, *3 side chain or, on linkers, in order; H or OH if unused. Where a SMILES comes first, the peptide text is derived from it. Where no end group is shown, it is not given here. [ ]: non-standard residue; d: D form. The star is where a group is joined. ξ: configuration not given here. BODIPY(FL) = CC1=CC(C)=[N+]2C1=Cc1ccc(CCC(=O)*)n1[B-]2(F)F; X1 = CN(C)c1ccc(/N=N/c2ccc(C(=O)*)cc2)cc1; Ethylenediamine = C(CN[*:2])N[*:1]; Ile(3ξ) = CCC(C)[C@H](N)C(=O)O; AMC = Cc1cc(=O)oc2cc(N*)ccc12

T1 sequence (P10144 21-247): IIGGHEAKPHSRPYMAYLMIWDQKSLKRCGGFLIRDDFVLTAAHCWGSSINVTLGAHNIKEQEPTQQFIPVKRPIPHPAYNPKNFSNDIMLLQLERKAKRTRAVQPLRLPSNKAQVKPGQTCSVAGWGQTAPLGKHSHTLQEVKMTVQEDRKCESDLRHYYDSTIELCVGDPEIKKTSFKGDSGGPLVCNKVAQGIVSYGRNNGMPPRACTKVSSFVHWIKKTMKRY
T2 sequence (P10144 21-247): as above

In the case of “{BODIPY(FL)}-[Ile(3ξ)]EPDAL-{Ethylenediamine-X1} (SMILES CCC(C)[C@H](NC(=O)CCC1=[N+]2C(=Cc3c(C)cc(C)n3[B-]2(F)F)C=C1)C(=O)N[C@@H](CCC(=O)O)C(=O)N1CCC[C@H]1C(=O)N[C@@H](CC(=O)O)C(=O)N[C@@H](C)C(=O)N[C@@H](CC(C)C)C(=O)NCCNC(=O)c1ccc(/N=N/c2ccc(N(C)C)cc2)cc1) [H5]”, the not cleaved entry in [1] is given as “less than 1% of both probes had been cleaved whilst in the urine sample alone”. The cleaved bond result is recorded as “Asp-Ala” in data set [2] and “aspartic acid-Ala” in [3].

Take IEPDWR: the cleaved bond entry in [2] is “Asp-Trp”.

On to IEPDSL, for which, in data set [2], the cleaved bond result was “Asp-Ser”. In the case of `CC(=O)O[C@@]12CO[C@@H]1C[C@H](O)[C@@]1(C)C(=O)[C@H](O)C3=C(C)[C@@H](OC(=O)[C@H](O)[C@@H](NC(=O)OC(C)(C)C)c4ccccc4)C[C@@](O)([C@@H](OC(=O)c4ccccc4)[C@H]21)C3(C)C` [C11, Docetaxel], the “H5 fluorescence signal compared to IL-2 only controls” value in data set [4] was “Increased fluorescence signals”. Take AZD5363 [C5]: in data set [5] (AZD5363 on its own, E0771 cells), the “cancer cell death and H5 staining” value is on record as “did not induce significant cancer cell death nor cause H5 staining”. In addition, the “cancer cell death and H5 fluorescence emission” value in data set [5] (combination with 100 U mL^−1 IL-2, CD8+ T cell-E0771 co-cultures) was “caused significant cancer cell death and H5 fluorescence emission”. Moreover, the results for the “H5 fluorescence signal compared to IL-2 only controls” value in data set [4] and in [4] (listed as AZD5363) were “Increased fluorescence signals” and “brightest H5 fluorescence staining”, respectively.

In the case of IEPDRL, the cleaved bond entry in [2] is recorded as “Asp-Arg”. Turning to `C/C(=C\c1csc(C)n1)[C@@H]1C[C@@H]2O[C@]2(C)CCC[C@H](C)[C@H](O)[C@@H](C)C(=O)C(C)(C)[C@@H](O)CC(=O)O1` [C13, Epothilone B], the “H5 fluorescence signal compared to IL-2 only controls” value in [4] is on record as “Increased fluorescence signals”. On to IEPDSG, for which the cleaved bond result in data set [2] is recorded as “Asp-Ser”. For IEPDWL, the cleaved bond result in data set [2] is “Asp-Trp”. Broadly, the Km is the substrate concentration at which the rate is half of its maximum. As a reminder, the kcat is the number of substrate molecules converted per active site and unit of time at saturation. Take Ac-IEPD-{AMC} [listing 1 of 2 here]: the LoD at hGzmB [6] (limit of detection of hGzmB) is listed as 25 nM. In addition, the “cleavage at 20 nM enzyme for 2 h” value on hGzmB [7] (2 h) is less than 1%. Further, at hGzmB [7], the “cleavage at 100 nM for 24 h” value is recorded as 10%. For the same compound, in the data set on GzmB, the Km is 160 µM and the turnover number (kcat) was 0.5 s⁻¹. Regarding `CO[C@@]12[C@H](COC(N)=O)C3=C(C(=O)C(C)=C(N)C3=O)N1C[C@@H]1N[C@@H]12` [C18, Mitomycin C], in data set [4], the “H5 fluorescence signal compared to IL-2 only controls” value is on record as “Increased fluorescence signals”. Regarding IEPDAG, in data set [2], the cleaved bond result is recorded as “Asp-Ala”.

For Ac-IEPD-{AMC} [listing 2 of 2 here], in the data set on hGzmB (100 nM), the cleaved bond result was “D-AMC”. Besides, the not cleaved in [2] was <1% cleavage at 20 nM enzyme for 2 h. Regarding `CC[C@H](C)[C@H](NC(=O)CCC1=[N+]2C(=Cc3c(C)cc(C)n3[B-]2(F)F)C=C1)C(=O)N[C@@H](CCC(=O)O)C(=O)N1CCC[C@H]1C(=O)N[C@@H](CC(=O)O)C(=O)NCCNC(=O)c1ccc(/N=N/c2ccc(N(C)C)cc2)cc1` [T1] ({BODIPY(FL)}-IEPD-{Ethylenediamine-X1}), at hGzmB [7] (2 h), the “cleavage at 20 nM enzyme for 2 h” value is listed as less than 5%. The “cleavage at 100 nM for 24 h” value at hGzmB [7] is on record as 15%.

For the compound `C#CC[C@H](c1nc2cc(Cl)ccc2c(=O)n1Nc1ccccc1)N(CCCN)C(=O)c1cccc(Cl)c1F` [C12, ARQ621], the “H5 fluorescence signal compared to IL-2 only controls” value in data set [4] is reported as “Increased fluorescence signals”. Turning to Ile-Glu-Pro-Asp-Ala-Leu [R7], the not cleaved result in data set [1] is on record as “less than 1% of both probes had been cleaved whilst in the urine sample alone”. Besides, the cleaved bond entry in data set [2] and in data set [3] was “aspartic acid-Ala” in each case. Regarding `CCC(C)[C@H](NC(=O)CCCCCN1/C(=C/C=C/C=C/C2=[N+](C)c3ccc(S(=O)(=O)[O-])cc3C2(C)C)C(C)(C)c2cc(S(=O)(=O)[O-])ccc21)C(=O)N[C@@H](CCC(=O)O)C(=O)N1CCC[C@H]1C(=O)N[C@@H](CC(=O)O)C(=O)N[C@@H](C)C(=O)N[C@@H](CC(C)C)C(=O)NCCOCCOCCOCCOCCNC(=O)C1CCN(S(=O)(=O)c2ccccc2-c2c3ccc(=[N+]4CCc5ccccc54)cc-3oc3cc(N4CCc5ccccc54)ccc23)CC1` (some centres unmarked) [R7], the “conversion from intact to cleaved (HPLC-MS)” value in data set [8] (within 2 hours) is recorded as 100%. Further, in data set [9], the “conversion to the cleaved probe in urine” value is reported as no more than 99%. The “probe cleaved in the urine sample alone (HPLC)” value in data set [10] is reported as “less than 1%”. In the case of IEFDAL, the cleaved bond entry in [2] was “Asp-Ala”. Consider “H5m (IEFDAL; also: FRET labels, positions not given here)”, for which the “HPLC conversion (20 nM hGzmB, 2 h)” value in the data set with hGzmB [7] (20 nM hGzmB, 2 h) was 70%. For `CC(=O)N[C@@H](CSC(=O)[C@]1([C@@H](O)C(C)C)NC(=O)[C@H](C)[C@@H]1O)C(=O)O` [C30, Lactacystin], in data set [4], the “H5 fluorescence signal compared to IL-2 only controls” value is “Increased fluorescence signals”. For Ac-IEPD-aldehyde, the “effect of inhibitor on fluorescence response of H5 to hGzmB” value at hGzmB [6] (Ac-IEPD-CHO 50 μM pre-incubated 1 h with GzmB) is recorded as “drastically reduced the fluorescence response of H5”. In addition, the “effect of inhibitor pre-incubation on fold change of R7” value in [8] (granzyme B pre-incubated with inhibitor) is “fold change decreased”. For “IEPD-Dabcyl ({BODIPY(FL)}-IEPD-{Ethylenediamine-X1}; SMILES CC[C@H](C)[C@H](NC(=O)CCC1=[N+]2C(=Cc3c(C)cc(C)n3[B-]2(F)F)C=C1)C(=O)N[C@@H](CCC(=O)O)C(=O)N1CCC[C@H]1C(=O)N[C@@H](CC(=O)O)C(=O)NCCNC(=O)c1ccc(/N=N/c2ccc(N(C)C)cc2)cc1)”, in [2], the not cleaved was <5% cleavage at 20 nM enzyme for 2 h.

The record behind these values is patent publication US20240376517A1 (THE UNIVERSITY COURT OF THE UNIVERSITY OF EDINBURCH, priority 2021, published 2024).
